System: A II receptor
Test: Angiotensin II ligand-receptor binding assay (rabbit aortae membrane preparation / bovine adrenal cortex preparation)
Conditions: "at least IC50 <50 μM"; not stated which of the two binding assays (rabbit aortae, 125I-Sar1Ile8-A II; bovine adrenal cortex, 3H-A II); read-out: IC50 (50% displacement of specifically bound radiolabelled angiotensin II ligand)
Text: Angiotensin II (A II) is a powerful arterial vasoconstrictor, and it exerts its action by interacting with specific receptors present on cell membranes. The compounds described in the present invention act as competitive antagonists of A II at the receptors. In order to identify A II antagonists and determine their efficacy in vitro, the following two ligand-receptor binding assays were established.
Receptor binding assay using rabbit aortae membrane preparation
Three frozen rabbit aortae (obtained from Pel-Freeze Biologicals) were suspended in 5 mM Tris-0.25M Sucrose, pH 7.4 buffer (50 ml) homogenized, and then centifuged. The mixture was filtered through a cheesecloth and the supernatant was centrifuged for 30 minutes at 20,000 rpm at 4° C. The pellet thus obtained was resuspended in 30 ml of 50 mM Tris-5 mM MgCl2 buffer containing 0.2% Bovine Serum Albumin and 0.2 mg/ml Bacitration and the suspension was used for 100 assay tubes. Samples tested for screening were done in duplicate. To the membrane preparation (0.25 ml) there was added ^125 I-Sar^1 Ile^8 -angiotensin II [obtained from New England Nuclear] (10 ul; 20,000 cpm) with or without the test sample and the mixture was incubated at 37° C. for 90 minutes. The mixture was then diluted with ice-cold 50 mM Tris-0.9% NaCl, pH 7.4 (4 ml) and filtered through a glass fiber filter (GF/B Whatman 2.4" diameter). The filter was soaked in scintillation cocktail (10 ml) and counted for radioactivity using Packard 2660 Tricarb liquid scintillation counter. The inhibitory concentration (IC50) of potential A II antagonist which gives 50% displacement of the total specifically bound ^125 I-Sar^1 Ile^8 -angiotensin II was presented as a measure of the efficacy of such compounds as A II antagonists.
Receptor assay using Bovine adrenal cortex preparation
Bovine adrenal cortex was selected as the source of A II receptor. Weighed tissue (0.1 g is needed for 100 assay tubes) was suspended in Tris.HCl (50 mM), pH 7.7 buffer and homogenized. The homogenate was centrifuged at 20,000 rpm for 15 minutes. Supernatant was discarded and pellets resuspended in buffer [Na2 HPO4 (10 mM)-NaCl (120 mM)-disodium EDTA (5 mM) containing phenylmethane sulfonyl fluoride (PMSF)(0.1 mM)]. (For screening of compounds, generally duplicates of tubes are used). To the membrane preparation (0.5 ml) there was added 3H-angiotensin II ([…]) (10 ul) with or without the test sample and the mixture was incubated at 37° C. for 1 hour. The mixture was then diluted with Tris buffer (4 ml) and filtered through a glass fiber filter (GF/B Whatman 2.4" diameter). The filter was soaked in scintillation cocktail (10 ml) and counted for radioactivity using Packard 2660 Tricarb liquid scintillation counter. […]

Row | SMILES | IC50
1 | CCCc1nc2c(c(C)nn2C)n1Cc1ccc(-c2ccccc2-c2nnn[nH]2)cc1 [Example 11, 1,4-Dihydro-1,3-dimethyl-5-propyl-4-[(2'-{1H-tetrazol-5-yl}{1,1'-biphenyl}-4-yl)methyl]imidazo[4,5-c]-pyrazole] | < 50 µM
2 | CCCCc1nc2sc(C(=O)OC)cc2n1Cc1ccc(-c2ccccc2-c2nnn[nH]2)cc1 [Example 6, 2-butyl-1-[(2'-{1H-tetrazol-5-yl}{1,1'-biphenyl}-4-yl)methyl]-1H-thieno[2,3-d]imidazole-5-carboxylic acid methyl ester] | < 50 µM
3 | CCCCc1nc2cc(C(=O)OC)sc2n1Cc1ccc(-c2ccccc2C(=O)O)cc1 [Example 3, 2-butyl-3-[(2'-carboxy{1,1'-biphenyl}-4-yl)methyl]-3H-thieno[2,3-d]imidazole-5-carboxylic acid methyl ester] | < 50 µM
4 | CCCCc1nc2cscc2n1Cc1ccc(-c2ccccc2C(=O)O)cc1 [Example 1, 4'-[(2-butyl-1H-thieno[3,4-d]imidazol-1-yl)methyl][1,1'-biphenyl]-2-carboxylic acid] | < 50 µM

Reference: patent US5389660A, “Substituted imidazo-fused 5-membered ring heterocycles as angiotensin II antagonists” (Merck & Co., Inc., priority 1992, dated 1995)
